Results on 24 molecules are retold here after ChEMBL document CHEMBL1142448, “Design and synthesis of 6-phenylnicotinamide derivatives as antagonists of TRPV1” (Bioorg Med Chem Lett, 2008).

A word on the pKb: it is the negative decadic logarithm of the Kb, by convention in mol/L. As usually defined, the ED50 is the dose at which the effect has come halfway, by size or by number of responders. By inhibition is commonly meant the percentage by which the read-out fell short of the control. One may read the bioavailability as dose-corrected exposure relative to a reference, in per cent. A higher bioavailability goes with good availability. By IC50 is commonly meant the concentration at which inhibition is half-maximal. For orientation: clearance means the rate of elimination divided by the concentration. The half-life is the time in which the quantity being followed falls by half.

Data set [1] addresses T1, Transient receptor potential cation channel subfamily V member 1 (Homo sapiens, UniProt Q8NER1). As to the kind of experiment: Antagonist activity at human TRPV1 expressed in human 1321N1 cells assessed as inhibition of capsaicin-induced calcium influx by FLIPR assay. The data set is classed as functional, cell-based.
The next data set has as its system Liver microsomes. Briefly: Intrinsic clearance in human liver microsomes. The format is ADME, Microsome.
Data set [2] is described as follows: Intrinsic clearance in guinea pig liver microsomes. The format is ADME, Cavia porcellus, Microsome. (Liver microsomes are a subcellular fraction often used to study metabolism.)
For data set [3], the system named is Cavia porcellus. Briefly: Antihyperalgesic activity in guinea pig assessed as reversal of FCA-induced inflammatory pain at 5 mg/kg, ip. The format is functional. The following applies: route intraperitoneal.
The species entered for data set [4] is Cavia porcellus. As to the kind of experiment: Antihyperalgesic activity against FCA-induced inflammatory pain in guinea pig assessed as paw withdrawal after 1 hr. The data set is classed as functional.
Data set [5] addresses T1, Transient receptor potential cation channel subfamily V member 1. Briefly: Inhibition of human TRPV1 expressed in HEK293 cells assessed as reversible inhibition of heat-activated current at 1 uM by whole cell patch clamp assay relative to control. The format is cell-based. On the technique in general: Patch clamp records ionic current or voltage across a cell membrane.

A short description of data set [6]: Oral bioavailability in guinea pig. The conditions noted are these: in vivo. The data set is classed as ADME, organism-based, Cavia porcellus.
Data set [7] deals with T1, Transient receptor potential cation channel subfamily V member 1. As to the kind of experiment: Antagonist activity at human TRPV1 expressed in HEK293 cells assessed as inhibition of capsaicin-induced calcium influx at 1 uM by whole cell patch clamp assay. The data set is classed as functional, cell-based.
The target is the same in data set [8]. Briefly: Antagonist activity at human TRPV1 expressed in HEK293 cells assessed as inhibition of capsaicin-induced calcium influx by whole cell patch clamp assay. The format is functional, cell-based.
Data set [9] shares this target. As to the kind of experiment: Antagonist activity at human TRPV1 expressed in HEK293 cells assessed as inhibition of pH 5.3 acid-induced calcium influx at 100 nM by whole cell patch clamp assay. The format is functional, cell-based.
Data set [10] shares this target. Briefly: Antagonist activity at human TRPV1 expressed in HEK293 cells assessed as inhibition of pH 5.3 acid-induced calcium influx by whole cell patch clamp assay. The data set is classed as functional, cell-based.
The target is the same in data set [11]. As to the kind of experiment: Antagonist activity at human TRPV1 expressed in HEK293 cells assessed as inhibition of pH 5.3 acid-induced calcium influx by FLIPR assay. The format is functional, cell-based.
Data set [12] concerns the target Transient receptor potential cation channel subfamily V member 1 (Cavia porcellus, UniProt Q6R5A3). Briefly: Antagonist activity at guinea pig TRPV1 expressed in HEK293 cells assessed as inhibition of pH 5.3 acid-induced calcium influx by FLIPR assay. The data set is classed as functional, cell-based.
For data set [13], the target named is Transient receptor potential cation channel subfamily V member 1 (Rattus norvegicus, UniProt O35433). As to the kind of experiment: Antagonist activity at rat TRPV1 expressed in HEK293 cells assessed as inhibition of pH 5.3 acid-induced calcium influx by FLIPR assay. The format is functional, cell-based.
Transient receptor potential cation channel subfamily V member 1 (Rattus norvegicus, UniProt O35433), sequence (O35433 whole entry): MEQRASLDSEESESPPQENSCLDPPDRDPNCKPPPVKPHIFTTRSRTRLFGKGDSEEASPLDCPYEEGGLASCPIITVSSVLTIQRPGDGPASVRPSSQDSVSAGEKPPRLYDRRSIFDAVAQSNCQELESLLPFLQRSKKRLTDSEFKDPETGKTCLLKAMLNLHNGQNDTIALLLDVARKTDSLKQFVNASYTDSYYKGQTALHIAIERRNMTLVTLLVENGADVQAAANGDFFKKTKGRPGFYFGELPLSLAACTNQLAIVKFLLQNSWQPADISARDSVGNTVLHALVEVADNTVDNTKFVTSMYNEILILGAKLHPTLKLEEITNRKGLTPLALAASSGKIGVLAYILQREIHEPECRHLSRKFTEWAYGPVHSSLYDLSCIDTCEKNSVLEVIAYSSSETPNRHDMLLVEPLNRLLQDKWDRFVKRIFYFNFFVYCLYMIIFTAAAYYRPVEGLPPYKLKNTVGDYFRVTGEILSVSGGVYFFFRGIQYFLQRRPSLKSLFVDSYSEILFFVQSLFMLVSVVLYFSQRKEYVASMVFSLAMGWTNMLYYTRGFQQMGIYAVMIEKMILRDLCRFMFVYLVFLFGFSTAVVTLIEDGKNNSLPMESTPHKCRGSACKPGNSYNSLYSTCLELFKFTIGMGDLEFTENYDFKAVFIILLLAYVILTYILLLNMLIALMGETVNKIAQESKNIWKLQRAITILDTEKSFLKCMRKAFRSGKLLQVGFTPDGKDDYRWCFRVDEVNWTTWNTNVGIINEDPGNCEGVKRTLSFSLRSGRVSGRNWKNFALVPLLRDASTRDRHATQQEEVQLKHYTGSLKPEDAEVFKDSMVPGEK
Data set [14] has as its target T1, Transient receptor potential cation channel subfamily V member 1. The conditions noted are these: HEK293.
Description: Antagonist activity at human TRPV1 expressed in HEK293 cells assessed as inhibition of capsaicin-induced calcium influx by FLIPR assay
Data set [15] concerns the target Transient receptor potential cation channel subfamily V member 1 (Cavia porcellus) (UniProt Q6R5A3). The following applies: HEK293.
Description: Antagonist activity at guinea pig TRPV1 expressed in HEK293 cells assessed as inhibition of capsaicin-induced calcium influx by FLIPR assay
Data set [16] addresses Transient receptor potential cation channel subfamily V member 1 (Rattus norvegicus) (UniProt O35433). The following applies: HEK293.
Description: Antagonist activity at rat TRPV1 expressed in HEK293 cells assessed as inhibition of capsaicin-induced calcium influx by FLIPR assay
Data set [17] relates to Cavia porcellus. Briefly: Antihyperalgesic activity in guinea pig assessed as reversal of FCA-induced inflammatory pain at 30 mg/kg, sc. The data set is classed as functional. The conditions noted are these: route subcutaneous.
Data set [18] in a line: Blood clearance in rat at 1 mg/kg, iv. The format is ADME, organism-based. Further details: dose 1 mg/kg, route intravenous. The following applies: whole blood.
Data set [19] is described as follows: Half life in rat at 1 mg/kg, iv. The format is ADME, organism-based. Further details: dose 1 mg/kg, route intravenous. The following applies: in vivo.
For the next data set, the target named is Cytochrome P450 3A4 (Homo sapiens, UniProt P08684). As to the kind of experiment: Inhibition of CYP3A4. The data set is classed as ADME.
Cytochrome P450 3A4, sequence (P08684 whole entry): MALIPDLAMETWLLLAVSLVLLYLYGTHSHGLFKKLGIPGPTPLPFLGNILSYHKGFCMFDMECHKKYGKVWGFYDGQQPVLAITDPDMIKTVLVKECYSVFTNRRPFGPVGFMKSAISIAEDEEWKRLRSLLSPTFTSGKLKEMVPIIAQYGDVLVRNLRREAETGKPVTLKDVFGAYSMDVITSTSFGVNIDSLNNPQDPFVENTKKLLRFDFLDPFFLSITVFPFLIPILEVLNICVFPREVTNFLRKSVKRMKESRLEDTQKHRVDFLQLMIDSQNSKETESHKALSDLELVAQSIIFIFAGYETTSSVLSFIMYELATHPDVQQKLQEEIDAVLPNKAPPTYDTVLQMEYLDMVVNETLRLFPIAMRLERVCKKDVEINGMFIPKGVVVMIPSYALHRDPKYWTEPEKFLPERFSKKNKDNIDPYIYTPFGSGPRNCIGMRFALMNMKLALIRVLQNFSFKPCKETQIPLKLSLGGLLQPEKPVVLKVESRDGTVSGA

T1 sequence (Q8NER1 whole entry): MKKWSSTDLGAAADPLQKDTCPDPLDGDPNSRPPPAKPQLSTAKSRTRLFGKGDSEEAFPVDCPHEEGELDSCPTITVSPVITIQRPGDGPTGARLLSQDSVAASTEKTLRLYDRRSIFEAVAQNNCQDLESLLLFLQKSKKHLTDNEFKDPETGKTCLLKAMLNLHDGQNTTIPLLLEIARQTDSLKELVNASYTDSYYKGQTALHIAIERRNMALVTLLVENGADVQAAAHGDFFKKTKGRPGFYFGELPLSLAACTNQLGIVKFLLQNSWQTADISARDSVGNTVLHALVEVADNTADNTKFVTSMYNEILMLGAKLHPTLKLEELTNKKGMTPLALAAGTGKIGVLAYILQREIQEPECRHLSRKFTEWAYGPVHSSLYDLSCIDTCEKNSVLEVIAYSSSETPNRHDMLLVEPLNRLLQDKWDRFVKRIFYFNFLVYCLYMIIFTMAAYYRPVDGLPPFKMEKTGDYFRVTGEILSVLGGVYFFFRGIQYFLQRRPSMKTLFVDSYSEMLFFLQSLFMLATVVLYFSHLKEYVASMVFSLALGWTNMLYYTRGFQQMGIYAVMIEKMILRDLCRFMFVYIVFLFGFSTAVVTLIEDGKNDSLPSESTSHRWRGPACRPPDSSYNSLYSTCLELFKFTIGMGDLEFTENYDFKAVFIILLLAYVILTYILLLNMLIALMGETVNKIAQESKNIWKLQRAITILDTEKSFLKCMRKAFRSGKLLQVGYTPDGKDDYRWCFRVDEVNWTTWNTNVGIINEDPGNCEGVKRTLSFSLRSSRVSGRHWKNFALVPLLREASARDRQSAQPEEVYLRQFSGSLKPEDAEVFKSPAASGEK
Transient receptor potential cation channel subfamily V member 1 (Cavia porcellus), sequence (Q6R5A3 whole entry): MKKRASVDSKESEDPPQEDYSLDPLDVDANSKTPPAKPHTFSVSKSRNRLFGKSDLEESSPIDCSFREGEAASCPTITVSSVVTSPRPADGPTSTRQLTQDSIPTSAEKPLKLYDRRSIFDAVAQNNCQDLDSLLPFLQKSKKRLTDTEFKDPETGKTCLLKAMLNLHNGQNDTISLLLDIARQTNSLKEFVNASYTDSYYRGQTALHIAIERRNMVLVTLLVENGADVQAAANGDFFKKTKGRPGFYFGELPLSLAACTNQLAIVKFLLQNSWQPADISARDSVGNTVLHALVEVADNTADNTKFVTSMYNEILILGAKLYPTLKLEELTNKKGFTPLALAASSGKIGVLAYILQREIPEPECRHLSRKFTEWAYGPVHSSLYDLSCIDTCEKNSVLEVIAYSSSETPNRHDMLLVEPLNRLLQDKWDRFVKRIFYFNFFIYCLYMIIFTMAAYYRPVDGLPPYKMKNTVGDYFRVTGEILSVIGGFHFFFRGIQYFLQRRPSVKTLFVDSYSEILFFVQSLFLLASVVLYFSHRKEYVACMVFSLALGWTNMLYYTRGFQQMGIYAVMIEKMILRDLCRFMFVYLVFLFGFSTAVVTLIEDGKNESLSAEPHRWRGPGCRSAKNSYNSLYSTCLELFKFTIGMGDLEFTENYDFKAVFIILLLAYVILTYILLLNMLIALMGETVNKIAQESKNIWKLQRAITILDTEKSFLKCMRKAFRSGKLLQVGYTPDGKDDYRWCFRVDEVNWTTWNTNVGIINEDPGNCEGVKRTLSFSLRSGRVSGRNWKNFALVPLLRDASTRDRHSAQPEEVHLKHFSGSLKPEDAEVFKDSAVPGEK
Transient receptor potential cation channel subfamily V member 1 (Cavia porcellus, UniProt Q6R5A3), sequence (Q6R5A3 whole entry): as above
Transient receptor potential cation channel subfamily V member 1 (Rattus norvegicus), sequence (O35433 whole entry): as the sequence (O35433 whole entry) above

Turning to `Cc1nc(-c2ccc(F)cc2)ccc1C(=O)Nc1ccc2nc[nH]c2c1`, the pKb in data set [1] turned out to be 7.2.

For the molecule `O=C(Nc1ccc2cccnc2c1)c1ccc(Cl)nc1`, the pKb in data set [1] was less than 6.7.

With `Cc1nc(-c2ccc(F)cc2)ccc1C(=O)Nc1ccc2cn[nH]c2c1`, the pKb in data set [1] turned out to be 7.5.

On to `Cc1nc(-c2ccc(F)cc2)ccc1C(=O)Nc1ccc2ncn(C)c2c1`, for which, in data set [1], the pKb was 6.7.

Regarding `Cc1nc(-c2ccc(F)cc2)ccc1C(=O)Nc1ccc2sc(N(C)C)nc2c1`, the pKb in data set [1] is less than 5.8.

As for `O=C(Nc1ccc2cccnc2c1)c1ccc(-c2ccc(Cl)cc2)nc1`, the pKb in data set [1] was 7.8.

`Cc1nc2ccc(NC(=O)c3ccc(-c4ccc(F)cc4)nc3C)cc2[nH]1`: the pKb in data set [1] was 6.

Consider `Cc1nc2ccc(NC(=O)c3ccc(-c4ccc(F)cc4)nc3C)cc2o1`, for which the negative logarithm of the Kb (pKb) in data set [1] was less than 6.7.

With `Cc1nc(-c2ccccc2)ccc1C(=O)Nc1ccc2cccnc2c1`, the pKb in data set [1] worked out at 9.

As to `N#Cc1ccc(-c2ccc(C(=O)Nc3ccc4cccnc4c3)cn2)cc1`, the pKb in [1] is less than 6.6.

As to `Cc1nc(-c2ccc(F)cc2)ccc1C(=O)Nc1ccc2scnc2c1`, in data set [1], the pKb turned out to be 7.5.

As to `O=C(Nc1ccc2cccnc2c1)c1ccc(-c2ccc(C(F)(F)F)cc2)nc1`, the pKb in data set [1] was 7.3.

As to `O=C(Nc1ccc2cccnc2c1)c1ccc(-c2ccc(F)cc2)nc1`, the CL with Liver microsomes was 1.7 mL/min/g; in data set [2] it was 42 mL/min/g. The pKb in [1] worked out at 8.2.

With `O=C(Nc1ccc2cccnc2c1)c1ccc(-c2ccccc2F)nc1`, the pKb in data set [1] stood at 8.7.

Consider `Cc1cc(-c2ccccc2)ncc1C(=O)Nc1ccc2cccnc2c1`, for which the pKb in [1] worked out at 6.7.

For `Cc1nc2cc(NC(=O)c3ccc(-c4ccc(F)cc4)nc3C)ccc2s1`, the Activity in the data set on Cavia porcellus [3] was 48%; in the data set filed under Cavia porcellus [4], 68%. Moreover, in the data set listed under Cavia porcellus [4] (Cavia porcellus, 1 h), the ED50 was 0.53 mg/kg. Also, the inhibition was 87% in data set [5], 100% in data set [7] and 96% in [9]. The molecule also had a bioavailability in data set [6] of 24%. Moreover, the CL in the data set with Liver microsomes was determined as 2.2 mL/min/g; in data set [2], 2.7 mL/min/g. The negative logarithm of the Kb (pKb) in [1] came out at 7.4; in data set [14], 7.2; in data set [15], 7.4; in data set [16], 7. In addition, the IC50 is 49 nM in [8]; 9 nM in data set [10]; 39.8 nM in data set [11]; 63.1 nM in data set [12]; 100 nM in data set [13].

As for `Cc1nc(-c2ccc(F)cc2)ccc1C(=O)Nc1ccc2ncsc2c1`, the pKb in data set [1] was determined as 6.7.

Consider `O=C(Nc1ccc2cccnc2c1)c1ccc(-c2ccccc2)nc1`, for which the Activity with Cavia porcellus [17] amounted to 32%. Further, the results for the CL (in the data set with Liver microsomes; in data set [2]) were 3.1 mL/min/g and 3.9 mL/min/g, respectively. Further, the clearance in data set [18] was 33 mL/min/kg. The molecule further had a half-life in data set [19] of 21.6 min.

For `N#Cc1ccc(C(=O)Nc2ccc3cccnc3c2)cn1`, the pKb in data set [1] is less than 6.7.

Consider `Cc1nc(-c2ccc(F)cc2)ccc1C(=O)Nc1ccc2c(C)n[nH]c2c1`, for which the pKb in [1] was 6.9.

For the molecule `O=C(Nc1ccc2cccnc2c1)c1ccc(-c2cccc(F)c2)nc1`, in [1], the pKb stood at 8.6.

With `Cc1nc(-c2ccc(F)cc2)ccc1C(=O)Nc1ccc2sc(CN(C)C)nc2c1`, the pKb in data set [1] was less than 6.7.

Take `Cc1nc(-c2ccc(F)cc2)ccc1C(=O)Nc1ccc2ccn(C)c2c1`: in data set [1], the negative logarithm of the Kb (pKb) was less than 6.5.

For the molecule `Cc1nc(-c2ccc(F)cc2)ccc1C(=O)Nc1ccc2cccnc2c1`, in the data set with Cavia porcellus [3], the Activity was determined as 42%. In addition, the IC50 against Cytochrome P450 3A4 was less than 10000 nM. Besides, the pKb in data set [1] was 8.5.
